Source: PMC3608651, “A Broad Profile of Co-Dominant Epitopes Shapes the Peripheral Mycobacterium tuberculosis Specific CD8+ T-Cell Immune Response in South African Patients with Active Tuberculosis” (PLoS ONE, 2013)
Where two headings read alike, the source gives them in different places. Marks after values point to notes of the source that are not given here.

Assays:
HLA-B*58:01 [1] = target: T1, HLA-B*58:01 (Homo sapiens, UniProt P01889, A329T/C349S/D201E/D98Y/E176V/E187L/E204Q/E69T/G107R/I218V/I90N/K202T/L105A/L119I/N104I/N87E/Q89R/Q94S/R106L/R155S/R180L/R86G/S101N/S121R/S35A/S48A/T118I/V127L/V306I/V36M/Y140S/Y91M); assay type: binding
HLA-A*02:01 [2] = target: T2, HLA-A*02:01 (Homo sapiens, UniProt P04439, D140Y/D185E/D98H/E176V/E277Q/G131W/G231S/I119V/I121R/I166T/I218V/L300P/L318F/N151K/N90K/P208A/P217A/Q86G/Q94H/R138H/R169H/T345S); details: cited from earlier work
HLA-A*68:01 = HLA-A*68:01 (Homo sapiens, UniProt P04439, A269V/D185E/E176V/E277Q/E87N/F33Y/G231S/I121M/I166T/I218V/L180W/L300P/L318F/N151K/P208A/P217A/Q86R/R169H/T345S); assay type: binding; details: percent relative the binding of positive control peptide […]; duplicated experiments; positive binder >40%
HLA-A*30:02 [3] = target: T3, HLA-A*30:02 (Homo sapiens, UniProt P04439, D101N/D140H/D185E/E176R/F33S/G80R/H175R/K168Q/Q94H/R138E/R41S/V100E); details: cited from earlier work
HLA-A*30:01 [4] = target: T4, HLA-A*30:01 (Homo sapiens, UniProt P04439, D140H/D185E/E176W/F33S/G80R/H175R/K168Q/R138E/R41S); details: cited from earlier work
HLA-A*24:02 [5] = target: T5, HLA-A*24:02 (Homo sapiens, UniProt P04439, D101N/D140Y/D185E/E176V/E190D/F33S/G103R/G107R/I119L/I121M/I306V/K335N/L105A/L180Q/L300P/N151K/N90K/Q86E/Q94H/R106L/R138H/R89G/T104I/T345S/V100E/W191G/Y123F); details: cited from earlier work
HLA-B*07:02 [6] = target: T6, HLA-B*07:02 (Homo sapiens, UniProt P01889); details: cited from earlier work
HLA-B*58:01 [7] = target: T1, HLA-B*58:01; assay type: binding; details: percent relative the binding of positive control peptide […]; duplicated experiments; positive binder >40%
HLA-A*30:01 [8] = target: T4, HLA-A*30:01; details: cited from earlier work; remark: listed apart in the source
HLA-B*07:02 [9] = target: T6, HLA-B*07:02; details: cited from earlier work; remark: listed apart in the source
HLA-A*30:01 [10] = target: T4, HLA-A*30:01; details: cited from earlier work; remark: listed apart in the source
HLA-A*24:02 [11] = target: T5, HLA-A*24:02; details: cited from earlier work; remark: listed apart in the source
HLA-C*07:01 [12] = target: T7, HLA-C*07:01 (Homo sapiens, UniProt P10321, K90N/S123Y); assay type: binding; details: percent relative the binding of positive control peptide […]; duplicated experiments; positive binder >40%
HLA-A*30:02 [13] = target: T3, HLA-A*30:02; details: cited from earlier work; remark: listed apart in the source
HLA-B*58:01 [14] = target: T1, HLA-B*58:01; assay type: binding; details: time points 0-8 h
HLA-A*24:02 [15] = target: T5, HLA-A*24:02; details: percent relative the binding of a positive control peptide; […]; cited from earlier work
HLA-A*02:01 [16] = target: T2, HLA-A*02:01; details: cited from earlier work; remark: listed apart in the source
HLA-C*07:01 [17] = target: T7, HLA-C*07:01; assay: affinity assay (ED50); assay type: binding
HLA-B*07:02 [18] = target: T6, HLA-B*07:02; details: cited from earlier work; remark: listed apart in the source
HLA-A*02:01 [19] = target: T2, HLA-A*02:01; details: cited from earlier work; remark: listed apart in the source
HLA-A*30:02 [20] = target: T3, HLA-A*30:02; details: cited from earlier work; remark: listed apart in the source
HLA-C*07:01 [21] = target: T7, HLA-C*07:01; assay: off-rate assay (t1/2); assay type: binding; details: time points 0-8 h
[22] = percent relative the binding of a positive control peptide, […]

In the case of IMYNYPAML [Rv0288_4–12], the “Aff B*58:01 (ED50)” value (HLA-B*58:01 [1]) is given as 200 nM, the “O-rate A*02:01 (t1/2)” value (HLA-A*02:01 [2]) is given as 26.9 h and the “Bind A*68:01” value (HLA-A*68:01) is given as 0%. For the same sequence, the “O-rate A*30:02 (t1/2)” value (HLA-A*30:02 [3]) was 3.1 h, the “Bind A*30:01” value (HLA-A*30:01 [4]; [22]) was 146** percent and the “O-rate A*24:02 (t1/2)” value (HLA-A*24:02 [5]) was 1.6 h. The “Bind B*07:02” value (HLA-B*07:02 [6]; [22]) was 35* percent, the “Bind B*58:01” value (HLA-B*58:01 [7]) was 110% and the “O-rate A*30:01 (t1/2)” value (HLA-A*30:01 [8]) was 0.5 h. For the same sequence, the “Aff B*07:02 (ED50)” value (HLA-B*07:02 [9]) was 30000 nM, the “Aff A*30:01 (ED50)” value (HLA-A*30:01 [10]) was 5000 nM and the “Aff A*24:02 (ED50)” value (HLA-A*24:02 [11]) was 100 nM. For the same sequence, the “Bind C*07:01” value (HLA-C*07:01 [12]) was 67%, the “Bind A*30:02” value (HLA-A*30:02 [13]) was 91** percent and the “O-rate B*58:01 (t1/2)” value (HLA-B*58:01 [14]) was 1.0 h. For the same sequence, the “Bind A*24:02” value (HLA-A*24:02 [15]) was 107* percent, the “Aff A*02:01 (ED50)” value (HLA-A*02:01 [16]) was 800 nM and the “Aff C*07:01 (ED50)” value (HLA-C*07:01 [17]) was 200 nM. The “O-rate B*07:02 (t1/2)” value (HLA-B*07:02 [18]) was 1.6 h, the “Bind A*02:01” value (HLA-A*02:01 [19]; [22]) was 94* percent and the “Aff A*30:02 (ED50)” value (HLA-A*30:02 [20]) was 8 nM. The “O-rate C*07:01 (t1/2)” value (HLA-C*07:01 [21]) was 0.2 h.

In the case of QIMYNYPAM [Rv0288_3–11wt], the “Aff B*58:01 (ED50)” value (HLA-B*58:01 [1]) is listed as 10000 nM, the “O-rate A*02:01 (t1/2)” value (HLA-A*02:01 [2]) is listed as 1.1 h and the “O-rate A*30:02 (t1/2)” value (HLA-A*30:02 [3]) is listed as 1.1 h. For the same sequence, the “Bind A*30:01” value (HLA-A*30:01 [4]) was 163** percent, the “O-rate A*24:02 (t1/2)” value (HLA-A*24:02 [5]) was 0.1 h and the “Bind B*07:02” value (HLA-B*07:02 [6]) was 28* percent. The “Bind B*58:01” value (HLA-B*58:01 [7]) was 34%, the “O-rate A*30:01 (t1/2)” value (HLA-A*30:01 [8]) was 0.8 h and the “Aff B*07:02 (ED50)” value (HLA-B*07:02 [9]) was 800000 nM. The “Aff A*30:01 (ED50)” value (HLA-A*30:01 [10]) was 4000 nM, the “Aff A*24:02 (ED50)” value (HLA-A*24:02 [11]) was 1000 nM and the “Bind A*30:02” value (HLA-A*30:02 [13]; [22]) was 90** percent. For the same sequence, the “O-rate B*58:01 (t1/2)” value (HLA-B*58:01 [14]) was 0.4 h, the “Bind A*24:02” value (HLA-A*24:02 [15]) was 55* percent and the “Aff A*02:01 (ED50)” value (HLA-A*02:01 [16]) was 1000 nM. For the same sequence, the “O-rate B*07:02 (t1/2)” value (HLA-B*07:02 [18]) was 1.5 h, the “Bind A*02:01” value (HLA-A*02:01 [19]) was 68* percent and the “Aff A*30:02 (ED50)” value (HLA-A*30:02 [20]) was 40 nM.
